Where two headings read alike, the source gives them in different places.
How the values were obtained:
[1] = biological target: T1, HCV NS3/4A protease complex, BMS strain (UniProt P27958, species not given/STRAIN_BMS); assay: FRET peptide assay to monitor HCV NS3/4A proteolytic activity (BMS strain); type: biochemical, Hepatitis C virus (genotype 1a); conditions: read-out: IC50 against the NS3/4A BMS strain in the enzyme assay; BMS strain
T1 construct: other: BMS strain; said of H77 and J4L6S; fused on or other part: three-lysine solubilising tail at the end of NS4A (printed for the H77 and J4L6S constructs; probably the same for BMS)
Text: (§1) HCV […] protease complexes, derived from the BMS strain, H77 strain or J4L6S strain, were generated, as described below. These purified recombinant proteins were generated for use in a homogeneous assay (see below) to provide an indication of how effective compounds of the present disclosure would be in inhibiting HCV NS3 proteolytic activity.
(§2) Serum from an HCV-infected patient was obtained from Dr. T. Wright, San Francisco Hospital. An engineered full-length cDNA (compliment deoxyribonucleic acid) template of the HCV genome (BMS strain) was constructed from DNA fragments obtained by reverse transcription-PCR (RT-PCR) of serum RNA (ribonucleic acid) and using primers selected on the basis of homology between other genotype 1a strains. From the determination of the entire genome sequence, a genotype 1a was assigned to the HCV isolate according to the classification of Simmonds et al. (See Simmonds, P. et al., J. Clin. Microbiol., 31(6), 1493-1503 (1993)). […] The infectious clones, H77 (1a genotype) and J4L6S (1b genotype) were obtained from R. Purcell (NIH) and the sequences are published in GENBANK® (AAB67036, see Yanagi, M. et al., Proc. Natl. Acad. Sci. U.S.A., 94(16):8738-8743 (1997); AF054247, see Yanagi, M. et al., Virology, 244(1):161-172 (1998)).
(§3) The H77 and J4L6S strains were used for production of recombinant NS3/4A protease complexes. DNA encoding the recombinant HCV NS3/4A protease complex (amino acids 1027 to 1711) for these strains were manipulated as described by P. Gallinari et al. (see Gallinari, P. et al, Biochemistry, 38(17):5620-5632 (1999)). Briefly, a three-lysine solubilizing tail was added at the 3′-end of the NS4A coding region. The cysteine in the P1 position of the NS4A-NS4B cleavage site (amino acid 1711) was changed to a glycine to avoid the proteolytic cleavage of the lysine tag. Furthermore, a cysteine to serine mutation was introduced by PCR at amino acid position 1454 to prevent the autolytic cleavage in the NS3 helicase domain. The variant DNA fragment was cloned in the pET21b bacterial expression vector (Novagen) and the NS3/4A complex was expressed in Escherichia. coli strain BL21 (DE3) (Invitrogen) following the protocol described by P. Gallinari et al. (see Gallinari, P. et al., J. Virol., 72(8):6758-6769 (1998)) with modifications. Briefly, the NS3/4A protease complex expression was induced with 0.5 millimolar (mM) Isopropyl β-D-1-thiogalactopyranoside (IPTG) for 22 hours (h) at 20° C. A typical fermentation (1 Liter (L)) yielded approximately 10 grams (g) of wet cell paste. The cells were resuspended in lysis buffer (10 mL/g) consisting of 25 mM N-(2-hydroxyethyl)piperazine-N′-(2-ethane sulfonic acid) (HEPES), pH 7.5, 20% glycerol, 500 mM sodium chloride (NaCl), 0.5% Triton X-100, 1 microgram/milliliter (“μg/mL”) lysozyme, 5 mM magnesium chloride (MgCl2), 1 μg/ml DnaseI, 5 mM β-mercaptoethanol (βME), protease inhibitor-ethylenediamine tetraacetic acid (EDTA) free (Roche), homogenized and incubated for 20 minutes (min) at 4° C. The homogenate was sonicated and clarified by ultra-centrifugation at 235000 g for 1 hour (h) at 4° C. Imidazole was added to the supernatant to a final concentration of 15 mM and the pH adjusted to 8.0. The crude protein extract was loaded on a Nickel-Nitrilotriacetic acid (Ni-NTA) column pre-equilibrated with buffer B (25 mM HEPES, pH 8.0, 20% glycerol, 500 mM NaCl, 0.5% Triton X-100, 15 mM imidazole, 5 mM βME). The sample was loaded at a flow rate of 1 mL/min. The column was washed with 15 column volumes of buffer C (same as buffer B except with 0.2% Triton X-100). The protein was eluted with 5 column volumes of buffer D (same as buffer C except with 200 mM Imidazole).
(§4) NS3/4A protease complex-containing fractions were pooled and loaded on a desalting column Superdex-S200 pre-equilibrated with buffer D (25 mM HEPES, pH 7.5, 20% glycerol, 300 mM NaCl, 0.2% Triton X-100, 10 mM βME). Sample was loaded at a flow rate of 1 mL/min. […]
T1 sequence (P27958 1027-1657, stated change not applied, one chain of several): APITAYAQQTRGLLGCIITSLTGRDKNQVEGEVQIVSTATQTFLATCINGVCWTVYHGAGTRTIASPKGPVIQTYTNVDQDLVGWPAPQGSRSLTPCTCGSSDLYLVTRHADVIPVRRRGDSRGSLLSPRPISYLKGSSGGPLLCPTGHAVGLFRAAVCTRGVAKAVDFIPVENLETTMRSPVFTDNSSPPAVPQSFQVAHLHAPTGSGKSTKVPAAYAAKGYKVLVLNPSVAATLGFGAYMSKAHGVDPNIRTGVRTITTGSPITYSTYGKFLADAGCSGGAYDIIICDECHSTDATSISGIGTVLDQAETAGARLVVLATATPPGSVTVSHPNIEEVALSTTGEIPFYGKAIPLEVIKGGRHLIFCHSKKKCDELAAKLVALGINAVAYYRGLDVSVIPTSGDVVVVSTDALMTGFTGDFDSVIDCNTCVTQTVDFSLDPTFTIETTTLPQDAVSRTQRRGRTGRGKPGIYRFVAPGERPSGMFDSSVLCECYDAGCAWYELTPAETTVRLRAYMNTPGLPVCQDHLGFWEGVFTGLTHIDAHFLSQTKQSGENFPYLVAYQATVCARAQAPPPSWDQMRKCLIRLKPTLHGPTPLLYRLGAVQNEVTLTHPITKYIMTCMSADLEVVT

[2] = biological target: T2, HCV NS3/4A protease complex, BMS strain (UniProt P27958, species not given/STRAIN_BMS); assay: as above; type: biochemical, Hepatitis C virus (genotype 1a); conditions: Table 2, NS3/4A BMS strain, numeric values
T2 construct: said of H77 and J4L6S; fused on or other part: three-lysine solubilising tail at the end of NS4A (printed for the H77 and J4L6S constructs; probably the same for BMS)
Text: as §1, §2, §3, §4
T2 sequence (P27958 1027-1657, stated change not applied, one chain of several): as above

[3] = biological target: T3, HCV NS3/4A protease complex, H77 strain (Hepatitis C virus genotype 1a, UniProt P27958, C1454S/C1711G); assay: FRET peptide assay to monitor HCV NS3/4A proteolytic activity (H77 strain); type: biochemical, Hepatitis C virus (1a genotype)
T3 construct: DNA encoding the recombinant HCV NS3/4A protease complex (amino acids 1027 to 1711) for these strains; His tag (inferred from pET21b vector and Ni-NTA purification); made in house; host or cells: Escherichia coli BL21 (DE3), pET21b
T3 sequence (P27958 1027-1711 C1454S/C1711G, one chain of several): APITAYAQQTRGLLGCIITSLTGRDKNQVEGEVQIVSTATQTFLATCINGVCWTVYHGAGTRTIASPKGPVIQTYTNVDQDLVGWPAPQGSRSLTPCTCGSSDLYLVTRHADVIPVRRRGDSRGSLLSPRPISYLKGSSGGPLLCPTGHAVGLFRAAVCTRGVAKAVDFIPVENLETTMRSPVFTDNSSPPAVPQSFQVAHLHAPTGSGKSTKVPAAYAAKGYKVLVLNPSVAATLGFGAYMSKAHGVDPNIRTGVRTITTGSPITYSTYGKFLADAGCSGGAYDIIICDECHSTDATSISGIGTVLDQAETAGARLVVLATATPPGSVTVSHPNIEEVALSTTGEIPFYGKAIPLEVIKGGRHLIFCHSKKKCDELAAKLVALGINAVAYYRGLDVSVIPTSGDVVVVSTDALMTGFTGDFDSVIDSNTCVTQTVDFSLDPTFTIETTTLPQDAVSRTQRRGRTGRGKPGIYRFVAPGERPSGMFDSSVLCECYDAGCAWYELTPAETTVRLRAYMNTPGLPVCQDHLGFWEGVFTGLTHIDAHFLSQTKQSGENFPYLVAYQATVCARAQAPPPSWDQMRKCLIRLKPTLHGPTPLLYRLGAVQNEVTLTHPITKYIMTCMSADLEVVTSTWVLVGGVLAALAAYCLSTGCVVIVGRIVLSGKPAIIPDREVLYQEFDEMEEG
Text: as §1, §2
(§5) The H77 and J4L6S strains were used for production of recombinant NS3/4A protease complexes. […]

[4] = biological target: T4, HCV NS3/4A protease complex, J4L6S strain (Hepatitis C virus genotype 1b, UniProt O92972, C1454S/C1711G); assay: FRET peptide assay to monitor HCV NS3/4A proteolytic activity (J4L6S strain); type: biochemical, Hepatitis C virus (1b genotype)
T4 construct: DNA encoding the recombinant HCV NS3/4A protease complex (amino acids 1027 to 1711) for these strains; His tag (inferred from pET21b vector and Ni-NTA purification); made in house; host or cells: Escherichia coli BL21 (DE3), pET21b
T4 sequence (O92972 1027-1711 C1454S/C1711G, one chain of several): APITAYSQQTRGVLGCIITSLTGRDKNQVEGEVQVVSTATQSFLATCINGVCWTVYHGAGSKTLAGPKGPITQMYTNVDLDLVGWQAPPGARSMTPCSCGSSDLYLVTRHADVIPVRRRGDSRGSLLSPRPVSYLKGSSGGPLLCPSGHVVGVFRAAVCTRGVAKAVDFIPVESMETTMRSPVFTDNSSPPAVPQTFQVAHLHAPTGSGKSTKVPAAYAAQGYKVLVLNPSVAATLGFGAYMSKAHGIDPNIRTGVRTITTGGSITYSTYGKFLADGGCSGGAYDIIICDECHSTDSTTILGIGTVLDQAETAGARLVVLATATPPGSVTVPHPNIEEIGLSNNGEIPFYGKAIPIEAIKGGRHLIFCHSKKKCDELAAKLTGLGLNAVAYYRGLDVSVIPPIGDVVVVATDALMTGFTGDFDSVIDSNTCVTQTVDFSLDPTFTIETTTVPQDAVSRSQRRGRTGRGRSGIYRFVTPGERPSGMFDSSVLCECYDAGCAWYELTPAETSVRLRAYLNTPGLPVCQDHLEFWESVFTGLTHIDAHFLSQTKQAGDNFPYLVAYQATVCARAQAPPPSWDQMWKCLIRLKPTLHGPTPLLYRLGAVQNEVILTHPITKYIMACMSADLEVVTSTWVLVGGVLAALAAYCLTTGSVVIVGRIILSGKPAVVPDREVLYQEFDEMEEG
Text: as §1, §2, §5

[5] = biological target: T5, porcine pancreatic elastase (PPE) (Sus scrofa, UniProt P00772); assay: Specificity assay, porcine pancreatic elastase; type: biochemical
T5 construct: purchased Sigma, EMDbiosciences
T5 sequence (P00772 27-266): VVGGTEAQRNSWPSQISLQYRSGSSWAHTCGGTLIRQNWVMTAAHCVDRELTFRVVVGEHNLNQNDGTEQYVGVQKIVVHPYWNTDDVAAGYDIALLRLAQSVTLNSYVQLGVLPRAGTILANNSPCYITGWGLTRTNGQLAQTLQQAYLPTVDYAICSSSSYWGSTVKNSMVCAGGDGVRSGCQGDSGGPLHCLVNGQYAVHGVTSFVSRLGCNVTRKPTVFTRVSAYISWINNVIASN
Protocol: The specificities of compounds of the present disclosure were determined against a variety of serine proteases: human neutrophil elastase (HNE), porcine pancreatic elastase (PPE) and human pancreatic chymotrypsin and one cysteine protease: human liver cathepsin B. In all cases a 96-well plate format protocol using a fluorometric Amino-Methyl-Coumarin (AMC) substrate specific for each enzyme was used as described previously (PCT Patent Application No. WO 00/09543) with some modifications to the serine protease assays. All enzymes were purchased from Sigma, EMDbiosciences while the substrates were from Bachem, Sigma and EMDbiosciences.
Compound concentrations varied from 100 to 0.4 μM depending on their potency. The enzyme assays were each initiated by addition of substrate to enzyme-inhibitor pre-incubated for 10 min at room temperature and hydrolysis to 15% conversion as measured on CYTOFLUOR®.
50 mM Tris-HCl, pH 8.0, 50 mM NaCl, 0.1 mM […], 3% DMSO, 0.02% Tween-20, 5 μM succ-AAPV-AMC and 20 nM HNE or 8 nM PPE;
The percentage of inhibition was calculated using the formula: [1−((UVinh−UVblank)/(UVctl−UVblank))]×100
A non-linear curve fit was applied to the inhibition-concentration data, and the 50% effective concentration (IC50) was calculated by the use of Excel XLfit software.

Structure (SMILES): C=C[C@@H]1C[C@]1(NC(=O)[C@@H]1C[C@@](SCCCC)(c2ccc(-c3ccccc3)cc2)CN1C(=O)[C@@H](NC(=O)OC(C)(C)C)C(C)(C)C)C(=O)NS(=O)(=O)C1CC1 [Example 1, tert-butyl (S)-1-((2S,4R)-4-(biphenyl-4-yl)-4-(butylthio)-2-((1R,2S)-1-(cyclopropylsulfonylcarbamoyl)-2-vinylcyclopropylcarbamoyl)pyrrolidin-1-yl)-3,3-dimethyl-1-oxobutan-2-ylcarbamate]
- IC50 [1]: 4.6 nM
- IC50 [2]: 3 nM
- IC50 [3]: 1.7 nM
- IC50 [4]: 1.1 nM
- IC50 [5]: > 25000 nM

Reference: patent US7964560B2, “Hepatitis C virus inhibitors” (Bristol-Myers Squibb Company, priority 2008, dated 2011)
